According to article PMC7972453, “The allosteric modulation of complement C5 by knob domain peptides” (eLife, 2021):
“Also recorded” adds a separate entry of the source. Bridges are numbered along the chain shown (N, C = ends). Where no end group is shown, it is not given here.

Tests used:
[1] = test system: classical pathway C5b deposition (complement C5); experiment: Classical pathway C5b deposition ELISA; format: biochemical, human; conditions: n=3 (K8: n=6), ND* = Not detected
Description: Figure 1. Functional modulation of C5 via knob domain peptides. […] Following activation of C1q via antibody Fc, C4 and C2 are cleaved and form C4bC2a (the CP C3 convertase) which cleaves C3 into C3a (not shown) and C3b. At high C3b concentrations, C4bC2aC3b (the CP […]) forms and cleaves C5 into C5a and C5b. C5b associates with C6 and forms the membrane attack complex (MAC) with C7, C8, and multiple copies of C9. […] In the presence of factor B and factor D, C3bBb (the AP C3 convertase) generates additional C3b, prompting formation of C3bBbC3b (the AP C5 convertase), which cleaves C5 into C5a and C5b, driving MAC formation. CP-driven ELISAs (C) and AP-driven ELISAs (D) are shown. For both pathways, the inhibition of C3d (the surface-associated domain of C3b, which is upstream of C5 inhibition), C5a release, and C5b neo-epitope formation and C9 deposition were tracked within the MAC. […] For the AP assays, 5% serum (v/v) gives a putative C5 concentration of 20 nM. For the CP assays, 1% serum (v/v) gives a putative C5 concentration of 4 nM, based on a reported C5 serum concentration of 397 nM/75 µg/mL ([Sjöholm, 1975]).
For the C5b ELISA, assays were run using the CP and AP Complement functional ELISA kits (Svar Life Science, Malmö, Sweden). For sample preparation, serum was diluted as per the respective protocol for the CP and AP assays. […]

[2] = test system: rabbit erythrocytes (alternative pathway haemolysis); experiment: Inhibition of alternative pathway haemolysis; format: cell-based, rabbit erythrocytes; normal human serum; conditions: 4.5% serum
Procedure: GVB^++ or Mg EGTA buffers, which had been supplemented with 2.5% glucose (w/v), were used for the CP and AP assays, respectively. For the AP, 150 µL of rabbit erythrocytes (TCS Biosciences, Botolph Claydon, UK) were washed twice, by addition of 1 mL of buffer and centrifugation at 800 ×g for 1 min, and finally resuspended in 500 µL of buffer. For the CP, 150 µL sheep erythrocytes (TCS Biosciences, Botolph Claydon, UK) were washed twice with 1 mL of buffer and sensitised with a 1/1000 dilution of rabbit anti-sheep red blood cell stroma antibody (S1389, Sigma Aldrich, Gillingham, UK). After a 30°C/30 min incubation, with shaking, the cells were rewashed and resuspended with 500 µL of buffer. Serial dilutions of peptide were prepared in the respective buffers and normal human serum was added at 1% for the CP and 4.5% for the AP (corresponding to CH50 of the serum). Also, 90 µL of peptide–serum mixtures were plated into a V-bottom 96-well microtiter plate (Corning) and 10 µL of erythrocytes were added. Plates were incubated for 30 min at 37°C, with shaking. Finally, 50 µL of buffer was added, the plates centrifuged at 800 ×g, and 80 µL of supernatant was transferred to an ELISA plate (Nunc) and absorbance measured at 405 nm.
Table 1.8. Inhibition of alternative pathway haemolysis.

[3] = target: T1, human C5 (Homo sapiens, UniProt P01031); experiment: SPR cross blocking; format: binding; conditions: HBS-EP, qualitative
T1 construct: tissue TCS Biosciences (serum); host or cells: human serum
Procedure: To test for cross blocking, arising from overlapping epitopes, or cooperativity between knob domains, we performed a surface plasmon resonance (SPR) cross blocking experiment, where, using a Biacore 8K, we saturated a C5-coated sensor chip with two 20 µM injections of knob domain peptide before injecting a different peptide at 20 µM to assess its capacity to bind. This provides a qualitative measure of cross blocking, whereby an increase in response units (RUs) indicates ternary complex formation, stoichiometries, or kinetics cannot be reliably derived with concurrent dissociation of both peptides (Figure 2).
On a Biacore 8K (GE Healthcare, Amersham, UK), human C5 was amine coupled to a CM5 chip using the same protocol as for C5b. A final immobilisation level of approximately 1000–2000 RUs was obtained. For cross blocking, the surface was saturated with two sequential injections of a 20 µM knob domain solution in HBS-EP buffer (GE Healthcare, Amersham, UK) using a flow rate of 30 µL/min and contact time of 300 s. This was immediately followed with an injection of a second knob domain peptide, again at 20 µM in HBS-EP, with a flow rate of 30 µL/min and a contact time of 270 s, and the dissociation phase was measured for 600 s. […]

T1 sequence (P01031 678-1676 limits assumed): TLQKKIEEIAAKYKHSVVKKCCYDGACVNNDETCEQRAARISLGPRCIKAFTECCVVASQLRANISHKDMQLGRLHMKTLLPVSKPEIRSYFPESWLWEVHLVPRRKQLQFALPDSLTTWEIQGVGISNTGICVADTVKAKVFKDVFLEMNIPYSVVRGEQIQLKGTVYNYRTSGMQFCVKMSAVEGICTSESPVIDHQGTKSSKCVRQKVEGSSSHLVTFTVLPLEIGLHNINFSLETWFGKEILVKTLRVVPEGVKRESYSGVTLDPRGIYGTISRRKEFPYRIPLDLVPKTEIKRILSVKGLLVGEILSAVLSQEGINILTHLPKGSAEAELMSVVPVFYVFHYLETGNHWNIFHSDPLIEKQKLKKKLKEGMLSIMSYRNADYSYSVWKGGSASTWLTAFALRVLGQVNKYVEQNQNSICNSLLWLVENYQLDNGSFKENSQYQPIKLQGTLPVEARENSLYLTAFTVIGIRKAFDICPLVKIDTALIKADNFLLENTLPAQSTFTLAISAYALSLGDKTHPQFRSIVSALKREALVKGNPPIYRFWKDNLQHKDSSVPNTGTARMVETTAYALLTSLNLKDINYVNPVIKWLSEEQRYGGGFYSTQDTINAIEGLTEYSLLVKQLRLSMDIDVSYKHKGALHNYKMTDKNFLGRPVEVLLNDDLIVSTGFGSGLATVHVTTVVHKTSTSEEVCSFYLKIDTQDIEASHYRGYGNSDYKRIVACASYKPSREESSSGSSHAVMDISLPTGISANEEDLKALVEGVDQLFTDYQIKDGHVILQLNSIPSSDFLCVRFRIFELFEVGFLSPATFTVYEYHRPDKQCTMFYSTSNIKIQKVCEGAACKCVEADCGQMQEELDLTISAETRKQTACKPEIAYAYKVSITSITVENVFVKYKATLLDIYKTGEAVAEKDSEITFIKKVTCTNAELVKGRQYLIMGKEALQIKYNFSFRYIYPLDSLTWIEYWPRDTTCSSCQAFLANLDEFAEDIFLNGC
T1 sequence (P01031 19-673 limits assumed): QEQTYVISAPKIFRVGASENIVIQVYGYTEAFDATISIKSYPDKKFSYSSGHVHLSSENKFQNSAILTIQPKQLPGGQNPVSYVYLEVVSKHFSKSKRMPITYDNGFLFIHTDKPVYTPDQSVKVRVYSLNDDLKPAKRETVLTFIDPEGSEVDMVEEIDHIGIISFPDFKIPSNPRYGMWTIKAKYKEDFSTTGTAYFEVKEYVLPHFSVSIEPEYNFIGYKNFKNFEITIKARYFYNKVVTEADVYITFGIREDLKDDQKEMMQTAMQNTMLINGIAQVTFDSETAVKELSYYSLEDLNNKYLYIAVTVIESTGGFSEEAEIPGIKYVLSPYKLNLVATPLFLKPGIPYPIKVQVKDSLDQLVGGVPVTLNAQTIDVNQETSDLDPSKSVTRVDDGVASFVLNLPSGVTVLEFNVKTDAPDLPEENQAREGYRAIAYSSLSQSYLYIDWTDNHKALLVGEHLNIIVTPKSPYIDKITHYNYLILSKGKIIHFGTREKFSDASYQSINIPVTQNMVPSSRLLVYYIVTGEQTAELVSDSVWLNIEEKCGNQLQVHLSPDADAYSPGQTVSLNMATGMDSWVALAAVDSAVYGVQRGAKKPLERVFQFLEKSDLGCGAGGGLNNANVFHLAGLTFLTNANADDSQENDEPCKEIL

## SVCPDGFDWGYGCAAGSSRFCTRHDWCCYDERADSHTYGFCTGNRVENLYFQ (disulfide 3-28, 13-21, 27-41) [K8]
[1]; CP C5b ELISA, preincubated 15 min RT
  Average Emax: 68.2%
[1]; CP functional ELISA kit (Svar), peptide preincubated with human serum 15 min RT, CP 1% serum, putative 4 nM C5, read-out: Geomean IC50
  IC50: 9.3 nM
[2]
  inhibition of AP haemolysis (in words): did not show efficacy in the AP haemolysis assay, below 10 µM; also recorded: did not show activity in the AP assay below 10 µM
[3]; two 20 µM injections of K57, then 20 µM second peptide
  binding to C5 saturated with K57: can bind, albeit at a lower level; also recorded: could still partially bind
[3]; two 20 µM injections of K92, then 20 µM second peptide
  binding to C5 saturated with K92: can bind, albeit at a lower level; also recorded: still able to bind, albeit to a lesser degree
